Test results published in PubChem BioAssay (NCI).
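Cultured in 96-well plates, cells were exposed to test compound for 48 hours across five concentrations. GI50 is the concentration that inhibits growth by half. TGI: total growth inhibition.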

Experiments:
Experiment in all cases: DTP human tumour cell line panel, 48 h
HT29 colon = tested on: HT29 colon
SN12C renal = tested on: SN12C renal
RPMI-8226 leukemia = tested on: RPMI-8226 leukemia
SNB-75 CNS = tested on: SNB-75 CNS
CAKI-1 renal = tested on: CAKI-1 renal
SW-620 colon = tested on: SW-620 colon
SK-OV-3 ovarian = tested on: SK-OV-3 ovarian
RXF 393 renal = tested on: RXF 393 renal
HOP-92 NSCLC = tested on: HOP-92 NSCLC
OVCAR-4 ovarian = tested on: OVCAR-4 ovarian

Row | Structure (SMILES) | TGI (HT29 colon) | TGI (SN12C renal) | TGI (RPMI-8226 leukemia) | TGI (SNB-75 CNS) | TGI (CAKI-1 renal) | TGI (SW-620 colon) | TGI (SK-OV-3 ovarian) | TGI (RXF 393 renal) | TGI (HOP-92 NSCLC) | TGI (OVCAR-4 ovarian) | GI50 (HT29 colon) | GI50 (SN12C renal) | GI50 (RPMI-8226 leukemia) | GI50 (SNB-75 CNS) | GI50 (CAKI-1 renal) | GI50 (SW-620 colon) | GI50 (SK-OV-3 ovarian) | GI50 (RXF 393 renal) | GI50 (HOP-92 NSCLC) | GI50 (OVCAR-4 ovarian)
1 | NC(=S)N/N=C1/CN(c2ccc(Cl)c(Cl)c2)CC(=O)C1c1nc2ccccc2s1 (centres undefined) | > 100 µM | > 100 µM | > 100 µM | > 100 µM | > 100 µM | > 100 µM | > 100 µM | > 100 µM | > 100 µM | > 100 µM | – | – | – | – | – | – | – | – | – | –
2 | CC[C@@H](O)C[C@H]1CCC[C@@]2(C[C@@H]3OC(=O)/C=C/[C@@](C)(O)[C@@H](O)[C@H](C)[C@@H](O)[C@H](OC4CCC(N(C)C)C(C)O4)[C@@H](O)[C@](C)(O)CCCCC/C=C/[C@@H]4CC(C)(C)O[C@@]4(O)C[C@H](O2)[C@H]3C)O1 (some centres undefined) | > 39.7 µM | 37.1 µM | 25 µM | 21.5 µM | 20.2 µM | 53.6 µM | 29.1 µM | 34.6 µM | 37.2 µM | 25.7 µM | – | – | – | – | – | – | – | – | – | –
3 | CCN(CC)c1ccc(N=Nc2ccc(-c3nc4cccn(C)c-4n3)cc2)cc1 | 13.8 µM | 19.3 µM | 7.07 µM | 38.9 µM | 41.5 µM | 22.9 µM | 43.5 µM | 11.8 µM | 33 µM | 31.2 µM | – | – | – | – | – | – | – | – | – | –
4 | C1CC2=C(C1)C1=S(S2)SC2=C1CCC2 | > 100 µM | > 100 µM | > 100 µM | > 100 µM | > 100 µM | > 100 µM | > 100 µM | > 100 µM | > 100 µM | > 100 µM | – | – | – | – | – | – | – | – | – | –
5 | COc1ccc2c(c1)O/C(=C\c1cccc(OCC(=O)Nc3nc(C)c(C)s3)c1)C2=O | > 21 µM | > 100 µM | 3.97 µM | 6.51 µM | – | > 26.8 µM | > 75.3 µM | 2.75 µM | 3.09 µM | > 100 µM | 2.73 µM | 2 µM | 1.66 µM | 0.862 µM | 1.06 µM | 2.86 µM | 25.2 µM | 1.06 µM | 1.32 µM | 12.8 µM
6 | COc1ccc2nc3cccc([N+](=O)[O-])c3c(NCCNCCN(C)C)c2c1 | 0.143 µM | 0.592 µM | 0.106 µM | 0.386 µM | 0.616 µM | 2.27 µM | 1.06 µM | 0.122 µM | 0.204 µM | 0.0509 µM | 0.0238 µM | 0.141 µM | 0.0208 µM | 0.158 µM | 0.0797 µM | 0.0486 µM | 0.279 µM | 0.0342 µM | 0.0588 µM | 0.0199 µM
7 | CCc1nn2ncccc2c1-c1ccnc(NC2CC2)n1 | > 25 µM | > 25 µM | > 25 µM | > 25 µM | > 25 µM | > 25 µM | > 25 µM | > 25 µM | > 25 µM | > 25 µM | > 25 µM | > 25 µM | > 25 µM | > 25 µM | > 22.1 µM | > 25 µM | > 25 µM | > 23.4 µM | > 6.73 µM | > 25 µM
8 | COC(=O)CC(=O)NCC1=CCC(=O)CC1 | > 100 µM | > 100 µM | > 100 µM | > 100 µM | > 100 µM | > 100 µM | > 100 µM | > 100 µM | > 100 µM | > 100 µM | – | – | – | – | – | – | – | – | – | –
